# Results published in patent publication US20230331785A1 (priority 2018, published 2023).
# Assays:
# Conditions in all cases: human
# NCI-N87 cells = tested on: NCI-N87 cells
# HCC1569 cells = tested on: HCC1569 cells
# [1] = tested on: HER2 positive JIMT-1 cells
# [2] = tested on: HER2 positive NCI/ADR-RES cells (NCI/ADR-RES-HER2+)
# [3] = tested on: HER2 positive HCC1954 cells
structure (smiles),measurement,setting,value
CS(=O)(=O)CCNCc1ccc(-c2ccc3ncnc(Nc4ccc(OCc5cccc(F)c5)c(Cl)c4)c3c2)o1 [lapatinib],"In Vitro Cytotoxicity CD50, NCI-N87",NCI-N87 cells,112 nM
same,"In Vitro Cytotoxicity CD50, HCC1569",HCC1569 cells,885 nM
same,"In Vitro Cytotoxicity CD50, JIMT-1",[1],"5,650 nM"
same,"In Vitro Cytotoxicity CD50, NCI/ADR-RES-HER2+",[2],"2,704 nM"
same,"In Vitro Cytotoxicity CD50, HCC1954",[3],786 nM
